Measurements published in patent US20100305120A1, “COMPOUNDS FOR TREATING MUSCULAR DYSTROPHY” (BIOMARIN IGA LIMITED, priority 2008, published 2010).

These compounds were tested on Utrophin A promoter linked to a luciferase reporter gene (assay: Luciferase reporter assay (murine H2K cells), H2K/mdx/Utro A reporter cell line). Conditions: 48 h; test compound concentration 1 μM; mdx mouse H2K Utrophin A reporter cells; read-out: Activity (luciferase level relative to control).
Format: cell-based
Method: Luciferase Reporter Assay (Murine H2K Cells)
The cell line used for the screen is an immortalized mdx mouse H2K cell line that has been stably transfected with a plasmid containing ≈5 kb fragment of the Utrophin A promoter including the first untranslated exon linked to a luciferase reporter gene.
Under conditions of low temperature and interferon containing media, the cells remain as myoblasts. These are plated into 96 well plates and cultured in the presence of compound for three days. The level of luciferase is then determined by cell lysis and reading of the light output from the expressed luciferase gene utilising a plate luminometer.
Luciferase Assay for 96 Well Plates
The H2K/mdx/Utro A reporter cell line cells were plated out into 96 well plates (Falcon 353296, white opaque) at a density of approximately 5000 cells/well in 190 μl normal growth medium. The plates were then incubated at 33° C. in the presence of 10% CO2 for 24 hrs.
Compounds were dosed by adding 10 μl of diluted compound to each well giving a final concentration of 10 μM (where a different final concentration was required, the amount of compound solution added was amended accordingly). The plates were then incubated for a further 48 hrs. Cells were then lysed in situ following the manufacture's protocols (Promega Steady-Glo Luciferase Assay System(E2520). Then counted for 10 seconds using a plate luminometer (Victor1420).
Compounds for screening were stored at −20° C. as 10 mM stocks in 100% DMSO until required.
Biological activity as assessed using the luciferase reporter assay in murine H2K cells, and the results are shown in Table 1, which also lists the concentration of the test compound solution in μM.
In the case of `CS(=O)(=O)c1ccc(Cn2nc(C(=O)Nc3ccc4c(c3)OCO4)c3c2CCC3)cc1` [Compound 150, N-(benzo[d][1,3]dioxol-5-yl)-1-(4-(methylsulfonyl)benzyl)-1,4,5,6-tetrahydrocyclopenta[c]pyrazole-3-carboxamide], the activity at 1 µM is reported as under 200%.

Same assay, conditions: 48 h; test compound concentration 10 μM; mdx mouse H2K Utrophin A reporter cells; read-out: Activity (luciferase level relative to control)
In the case of `COc1ccc(CCNC(=O)Nc2nn(Cc3cc4c(cc3Cl)OCO4)c3ccccc23)cc1` [Compound 37, 1-(1-((6-chlorobenzo[d][1,3]dioxol-5-yl)methyl)-1H-indazol-3-yl)-3-(4-methoxyphenethyl)urea], the activity at 10 µM is reported as under 200%. In the case of `C#CCN(C)S(=O)(=O)c1ccc(Cn2nc(C(=O)Nc3ccc(C(C)C)cc3)c3ccccc32)cc1` [Compound 66, N-(4-isopropylphenyl)-1-(4-(N-methyl-N-(prop-2-ynyl)sulfamoyl)benzyl)-1H-indazole-3-carboxamide], the activity at 10 µM is reported as under 200%. `NC(=O)c1ccc(NC(=O)c2nn(Cc3ccc(C(=O)N4CCOCC4)cc3)c3ccccc23)cc1` [Compound 38, N-(4-carbamoylphenyl)-1-(4-(morpholine-4-carbonyl)benzyl)-1H-indazole-3-carboxamide] gave an activity at 10 µM of 201 to 300%. In the case of `O=C(Nc1ccccn1)c1nn(CCOc2ccc(F)cc2)c2ccccc12` [Compound 67, 1-(2-(4-fluorophenoxy)ethyl)-N-(pyridin-2-yl)-1H-indazole-3-carboxamide], the activity at 10 µM is reported as under 200%. `CON(C)S(=O)(=O)c1ccc(Cn2nc(C(=O)Nc3nc4ccccc4s3)c3ccccc32)cc1` [Compound 1, N-(benzo[d]thiazol-2-yl)-1-(4-(N-methoxy-N-methylsulfamoyl)benzyl)-1H-indazole-3-carboxamide] was tested, and the activity at 10 µM was under 200%. `Cc1ccc(NC(=O)c2nn(Cc3ccc(S(C)(=O)=O)cc3)c3ccccc23)nc1` [Compound 134, N-(5-methylpyridin-2-yl)-1-(4-(methylsulfonyl)benzyl)-1H-indazole-3-carboxamide] gave an activity at 10 µM of under 200%. For `O=C(Nc1ccc2c(c1)OCO2)c1nn(Cc2ccc(C(F)(F)F)cc2)c2ccccc12` [Compound 115, N-(benzo[d][1,3]dioxol-5-yl)-1-(4-(trifluoromethyl)benzyl)-1H-indazole-3-carboxamide], the activity at 10 µM was under 200%. In the case of `COc1ccc2c(c1)c(C(=O)Nc1ccc(N3CCCCC3)cc1)nn2Cc1ccc(S(=O)(=O)N(C)OC)cc1` [Compound 8, 5-methoxy-1-(4-(N-methoxy-N-methylsulfamoyl)benzyl)-N-(4-(piperidin-1-yl)phenyl)-1H-indazole-3-carboxamide], the activity at 10 µM is reported as under 200%. For `O=C(Nc1nc2ccccc2s1)c1nn(Cc2ccc(C(=O)N3CCOCC3)cc2)c2ccccc12` [Compound 17, N-(benzo[d]thiazol-2-yl)-1-(4-(morpholine-4-carbonyl)benzyl)-1H-indazole-3-carboxamide], the activity at 10 µM was 201 to 300%. Compound `CS(=O)(=O)c1ccc(Cn2nc(C(=O)Nc3ccc(Cl)c(Cl)c3)c3ccccc32)cc1` [Compound 111, N-(3,4-dichlorophenyl)-1-(4-(methylsulfonyl)benzyl)-1H-indazole-3-carboxamide] has an activity at 10 µM of under 200%. In the case of `CN(C)C(=O)c1ccc(Cn2nc(C(=O)Nc3ccc4c(c3)OCO4)c3ccccc32)cc1` [Compound 117, N-(benzo[d][1,3]dioxol-5-yl)-1-(4-(dimethylcarbamoyl)benzyl)-1H-indazole-3-carboxamide], the activity at 10 µM is reported as 201 to 300%. `CN(C)S(=O)(=O)c1ccc(Cn2nc(C(=O)Nc3ccc4c(c3)OCO4)c3ccccc32)cc1` [Compound 128, N-(benzo[d][1,3]dioxol-5-yl)-1-(4-(N,N-dimethylsulfamoyl)benzyl)-1H-indazole-3-carboxamide] showed an activity at 10 µM of 201 to 300%. `COc1ccc(NC(=O)c2nn(CCOc3ccccc3)c3ccccc23)cc1` [Compound 56, N-(4-methoxyphenyl)-1-(2-phenoxyethyl)-1H-indazole-3-carboxamide] showed an activity at 10 µM of under 200%. For `CC(C)c1ccc(NC(=O)c2nn(Cc3ccc(C(=O)N(C)Cc4ccccc4)cc3)c3ccccc23)cc1` [Compound 22, 1-(4-(benzyl(methyl)carbamoyl)benzyl)-N-(4-isopropylphenyl)-1H-indazole-3-carboxamide], the activity at 10 µM was under 200%. Work on `CS(=O)(=O)c1ccc(Cn2nc(C(=O)Nc3ccc4c(c3)OC(F)(F)O4)c3ccccc32)cc1` [Compound 35, N-(2,2-difluorobenzo[d][1,3]dioxol-5-yl)-1-(4-(methylsulfonyl)benzyl)-1H-indazole-3-carboxamide] yielded an activity at 10 µM of under 200%. `CS(=O)(=O)c1ccc(Cn2nc(C(=O)Nc3ccc4ncccc4c3)c3ccccc32)cc1` [Compound 99, 1-(4-(methylsulfonyl)benzyl)-N-(quinolin-6-yl)-1H-indazole-3-carboxamide] gave an activity at 10 µM of 201 to 300%. With `CS(=O)(=O)c1ccc(Cn2nc(C(=O)Nc3ccc(N4CCCCC4)cc3)c3ccccc32)cc1` [Compound 18, 1-(4-(methylsulfonyl)benzyl)-N-(4-(piperidin-1-yl)phenyl)-1H-indazole-3-carboxamide] the activity at 10 µM was 201 to 300%. Compound `O=C(Nc1ccccc1C(F)(F)F)Nc1nn(Cc2ccc(COc3ccc4c(c3)OCO4)cc2)c2ccc(C(F)(F)F)cc12` [Compound 29, 1-(1-(4-((benzo[d][1,3]dioxol-5-yloxy)methyl)benzyl)-5-(trifluoromethyl)-1H-indazol-3-yl)-3-(2-(trifluoromethyl)phenyl)urea] has an activity at 10 µM of under 200%. `COc1cccc(OCc2ccc(Cn3nc(NC(=O)NCc4ccccc4OC)c4ccccc43)cc2)c1` [Compound 44, 1-(2-methoxybenzyl)-3-(1-(4-((3-methoxyphenoxy)methyl)benzyl)-1H-indazol-3-yl)urea] showed an activity at 10 µM of under 200%. In the case of `CS(=O)(=O)c1ccc(Cn2nc(C(=O)Nc3ccc(F)cc3)c3ccccc32)cc1` [Compound 94, N-(4-fluorophenyl)-1-(4-(methylsulfonyl)benzyl)-1H-indazole-3-carboxamide], the activity at 10 µM is reported as under 200%. Compound `Cc1ccc(NC(=O)Nc2nn(Cc3ccc(C(F)(F)F)cc3)c3ccccc23)cc1` [Compound 59, 1-p-tolyl-3-(1-(4-(trifluoromethyl)benzyl)-1H-indazol-3-yl)urea] has an activity at 10 µM of under 200%. `CS(=O)(=O)c1ccccc1Cn1nc(C(=O)Nc2ccc3c(c2)OCO3)c2ccccc21` [Compound 136, N-(benzo[d][1,3]dioxol-5-yl)-1-(2-(methylsulfonyl)benzyl)-1H-indazole-3-carboxamide] gave an activity at 10 µM of under 200%. Work on `COc1cccc(NC(=O)c2nn(Cc3ccc(S(C)(=O)=O)cc3)c3ccccc23)c1` [Compound 86, N-(3-methoxyphenyl)-1-(4-(methylsulfonyl)benzyl)-1H-indazole-3-carboxamide] yielded an activity at 10 µM of under 200%. `Cc1ccc(NC(=O)c2nn(Cc3ccc(C(=O)N(C)C)cc3)c3ccccc23)cc1` [Compound 138, 1-(4-(dimethylcarbamoyl)benzyl)-N-p-tolyl-1H-indazole-3-carboxamide] was tested, and the activity at 10 µM was 201 to 300%.

Same assay, conditions: 48 h; test compound concentration 30 μM; mdx mouse H2K Utrophin A reporter cells; read-out: Activity (luciferase level relative to control)
Work on `O=C(Nc1ccccc1OC(F)(F)F)Nc1nn(Cc2ccc(C(F)(F)F)cc2)c2ccccc12` [Compound 40, 1-(2-(trifluoromethoxy)phenyl)-3-(1-(4-(trifluoromethyl)benzyl)-1H-indazol-3-yl)urea] yielded an activity at 30 µM of under 200%. In the case of `CS(=O)(=O)c1ccc(Cn2ccc(C(=O)Nc3ccc4c(c3)OCO4)n2)cc1` [Compound 148, N-(benzo[d][1,3]dioxol-5-yl)-1-(4-(methylsulfonyl)benzyl)-1H-pyrazole-3-carboxamide], the activity at 30 µM is reported as under 200%.
